Measured values as given in patent publication US20120328569A1, “INHIBITORS OF HEPATITIS C VIRUS NS5B POLYMERASE” (priority 2010, published 2012).

test system: HCV genotype 1b replicon; assay: HCV replicon assay, cell ELISA with antibody to replicon-encoded NS3/4A (genotype 1b replicon); assay type: cell-based, hepatitis C virus; details: Hepatitis C virus, 96 h, read-out: 1b IC50(nM), HCV genotype 1b replicon; 96 hours incubation; NS3/4A cell ELISA
Method: The HCV NS5B inhibitory activity of the present compounds may be tested using assays known in the art. The HCV NS5B polymerase inhibitors described herein have activities in a genotype 1b replicon assay as described in the Examples. The assay is performed by incubating a replicon harboring cell-line in the presence of inhibitor for a set period of time and measuring the effect of the inhibitor on HCV replicon replication either directly by quantifying replicon RNA level, or indirectly by measuring enzymatic activity of a co-encoded reporter enzyme such as luciferase or β-lactamase. By performing a series of such measurements at different inhibitor concentrations, the effective inhibitory concentration of the inhibitor (EC50 or EC90) is determined. See Jan M. Vrolijk et al., A replicons-based bioassay for the measurement of interferons in patients with chronic hepatitis C, 110 J. VIROLOGICAL METHODS 201 (2003). Such assays may also be run in an automated format for high through-put screening. See Paul Zuck et al., A cell-based β-lactamase reporter gene assay for the identification of inhibitors of hepatitis C virus replication, 334 ANALYTICAL BIOCHEMISTRY 344 (2004).
Measurement of inhibition by compounds was performed using the HCV replicon system. Several different replicons encoding different HCV genotypes or mutations were used. In addition, potency measurements were made using different formats of the replicon assay, including different ways of measurements and different plating formats. See Jan M. Vrolijk et al., A replicons-based bioassay for the measurement of interferons in patients with chronic hepatitis C, 110 J. VIROLOGICAL METHODS 201 (2003); Steven S. Carroll et al., Inhibition of Hepatitis C Virus RNA Replication by 2′-Modified Nucleoside Analogs, 278(14) J. BIOLOGICAL CHEMISTRY 11979 (2003). However, the underlying principles are common to all of these determinations, and are outlined below.
Stable neomycin phosphotransferase encoding replicons-harboring cell lines were used, so all cell lines were maintained under G418 selection prior to the assay. Potency was determined using a cell ELISA assay with an antibody to the replicons encoded NS3/4a protease. See Caterina Trozzi et al., In Vitro Selection and Characterization of Hepatitis C Virus Serine Protease Variants Resistant to an Active-Site Peptide Inhibitor, 77(6) J. Virol. 3669 (2003). To initiate an assay, replicon cells were plated in the presence of a dilution series of test compound in the absence of G418. Typically, the assays were performed in a 96-well plate formate for manual operation, or a 384-well plate format for automated assay. Replicon cells and compound were incubated for 96 hours. At the end of the assay, cells were washed free of media and compound, and the cells were then lysed. RNA was quantified indirectly through detection of replicon-encoded NS3/4A protein levels, through an ELISA-based assay with an antibody specific for NS3/4A. IC50 determinations were calculated as a percentage of a DMSO control by fitting the data to a four-parameter fit function and the data obtained is provided in the table below.

| Compound | IC50 [nM] |
| --- | --- |
| CNC(=O)c1c(-c2ccc(F)cc2)oc2cc(N(C)S(C)(=O)=O)c(-c3ccc(F)c(-c4cc5cccnc5[nH]4)c3)cc12 [Example 855] | 1.2 |
| CNC(=O)c1c(-c2ccc(F)cc2)oc2cc(N(C)S(C)(=O)=O)c(-c3ccc(OC)c(-c4csc5ncccc45)c3)cc12 [Example 686] | 17.6 |
| CNC(=O)c1c(-c2ccc(F)cc2)oc2cc(N(C)S(C)(=O)=O)c(-c3ccc(-c4cnco4)c(-c4nc5c(Cl)cccc5o4)c3)cc12 [Example 480] | 3.01 |
| CNC(=O)c1c(-c2ccc(F)cc2)oc2cc(N(C)S(C)(=O)=O)c(-c3ccc(S(C)(=O)=O)c(-c4nc5c(Cl)cccc5o4)c3)cc12 [Example 420] | 5.08 |
| CNC(=O)c1c(-c2ccc(F)cc2)oc2cc(N(C3COC3)S(C)(=O)=O)c(-c3ccc(OC)c(-c4nc5c(C#N)cccc5o4)c3)cc12 [Example 722] | 3.03 |
| CNC(=O)c1c(-c2ccc(F)cc2)oc2cc(N(Cc3cccnc3)S(C)(=O)=O)c(-c3ccc(OC)c(-c4nc5c(F)cccc5o4)c3)cc12 [Example 707] | 4.93 |
| CNC(=O)c1c(-c2ccc(F)cc2)oc2cc(N(CCC(C)(C)C#N)S(C)(=O)=O)c(-c3ccc(OC)c(-c4nc5c(F)cccc5o4)c3)cc12 [Example 733] | 7.78 |
| CNC(=O)c1c(-c2ccc(F)cc2)oc2cc(N(C3CC(C#N)C3)S(C)(=O)=O)c(-c3ccc(OC)c(-c4nc5c(F)cccc5o4)c3)cc12 (centres unmarked) [Example 740] | 4.76 |
| CNC(=O)c1c(-c2ccc(F)cc2)oc2cc(N(CCC(C)(C)F)S(C)(=O)=O)c(-c3cccc(-c4nc5ncccc5o4)c3)cc12 [Example 797] | 2.43 |
| CNC(=O)c1c(-c2ccc(F)cc2)oc2cc(N(C)S(C)(=O)=O)c(-c3ccc(OC)c(-c4nc5c(C(=O)Nc6ccccc6)cccc5o4)c3)cc12 [Example 638] | 29.8 |
| CNC(=O)c1c(-c2ccc(F)cc2)oc2cc(N(C)S(C)(=O)=O)c(-c3cc(-c4nc5cccc(F)c5o4)ccc3O)cc12 [Example 611] | 11.1 |
| CNC(=O)c1c(-c2ccc(F)cc2)oc2cc(N(C)S(C)(=O)=O)c(-c3ccc(OC)c(-c4cc5cc(F)ccc5[nH]4)c3)cc12 [Example 860] | 1.9 |
| CNC(=O)c1c(-c2ccc(F)cc2)oc2cc(N(C)S(C)(=O)=O)c(-c3ccc(-c4ccco4)c(-c4nc5c(F)cccc5o4)c3)cc12 [Example 478] | 8.65 |
| CNC(=O)c1c(-c2ccc(F)cc2)oc2cc(N(CC(F)F)S(C)(=O)=O)c(-c3ccc(OC)c(-c4nc5cccc(F)c5o4)c3)cc12 [Example 878] | 17.2 |
| CNC(=O)c1c(-c2ccc(F)cc2)oc2cc(N(Cc3cccnc3)S(C)(=O)=O)c(-c3ccc(OC)c(-c4nc5c(C#N)cccc5o4)c3)cc12 [Example 708] | 3.95 |
| CNC(=O)c1c(-c2ccc(F)cc2)oc2cc(N(C)S(C)(=O)=O)c(-c3ccc(CC#N)c(-c4nc5c(F)cccc5o4)c3)cc12 [Example 429] | 4.91 |

same assay, conditions: Hepatitis C virus, 96 h, read-out: Replicon 1b IC50 (nM), HCV genotype 1b replicon cells, 96 hours incubation, NS3/4A ELISA readout

| Compound | IC50 [nM] |
| --- | --- |
| CNC(=O)c1c(-c2ccc(F)cc2)oc2cc(N(C)S(C)(=O)=O)c(-c3cccc(OC)c3)cc12 [Example 88, 2-(4-fluorophenyl)-5-(3-methoxyphenyl)-N-methyl-6-[methyl (methylsulfonyl)amino]-1-benzofuran-3-carboxamide] | 52 |
| CNC(=O)c1c(-c2ccc(F)cc2)oc2cc(N(C)S(C)(=O)=O)c(-c3ccc(OC)c(-c4nc5c(F)cc(F)cc5o4)c3)cc12 [Example 408] | 3.8 |
| CNC(=O)c1c(-c2ccc(F)cc2)oc2cc(N(CCO)S(C)(=O)=O)c(-c3ccc(OC)c(-c4nc5ncccc5o4)c3)cc12 [Compound 387] | 2.3 |
| CNC(=O)c1c(-c2ccc(F)cc2)oc2cc(N(C)S(C)(=O)=O)c(-c3ccc(Cl)c(-c4nc5cncnc5[nH]4)c3)cc12 [Example 347] | 8.1 |
| CNC(=O)c1c(-c2ccc(F)cc2)oc2cc(N(C)S(C)(=O)=O)c(-c3cccc(-c4[nH]c5ccccc5c4Br)c3)cc12 [Example 382, 5-(3-(3-bromo-1H-indol-2-yl)phenyl)-2-(4-fluorophenyl)-N-methyl-6-(N-methylmethylsulfonamido)benzofuran-3-carboxamide] | 8.9 |
| CNC(=O)c1c(-c2ccc(F)cc2)oc2cc(N(C)S(C)(=O)=O)c(-c3ccc(OC)c(-c4nc5c(F)ccc(F)c5o4)c3)cc12 [Example 409] | 2.1 |
| CNC(=O)c1c(-c2ccc(F)cc2)oc2cc(N(C)S(C)(=O)=O)c(-c3cc(OC)cc(-c4nc5cc(Cl)cnc5[nH]4)c3)cc12 [Example 317] | 2.9 |
| CNC(=O)c1c(-c2ccc(F)cc2)oc2cc(N(C)S(C)(=O)=O)c(-c3ccccc3C)cc12 [Example 80, 2-(4-fluorophenyl)-N-methyl-6-[methyl (methylsulfonyl)amino]-5-(2-methylphenyl)-1-benzofuran-3-carboxamide] | 241 |
| CNC(=O)c1c(-c2ccc(F)cc2)oc2cc(N(CCCCC#N)S(C)(=O)=O)c(-c3cccc(-c4nc5ncccc5o4)c3)cc12 [Compound 394] | 1.4 |
| CNC(=O)c1c(-c2ccc(F)cc2)oc2cc(N(C)S(C)(=O)=O)c(-c3cc(F)cc(-c4nc5ncccc5o4)c3)cc12 [Example 198] | 1.4 |
| CNC(=O)c1c(-c2ccc(F)cc2)oc2cc(N(C)S(C)(=O)=O)c(-c3ccc(OC(C)C)c(-c4nc5ccccc5o4)c3)cc12 [Example 193] | 11.6 |
| CNC(=O)c1c(-c2ccc(F)cc2)oc2cc(N(C)S(C)(=O)=O)c(-c3cccc(-c4[nH]c5ccccc5c4Cl)c3)cc12 [Example 381] | 5.1 |
| CNC(=O)c1c(-c2ccc(F)cc2)oc2cc(N(C)S(C)(=O)=O)c(-c3cc(OC)c(OC)c(-c4nc5cccnc5o4)c3)cc12 [Example 235] | 4 |
| CNC(=O)c1c(-c2ccc(F)cc2)oc2cc(N(C)S(C)(=O)=O)c(-c3ccc(OC)cc3)cc12 [Example 89, 2-(4-fluorophenyl)-5-(4-methoxyphenyl)-N-methyl-6-[methyl (methylsulfonyl)amino]-1-benzofuran-3-carboxamide] | 23 |
| CNC(=O)c1c(-c2ccc(F)cc2)oc2cc(N(C)S(C)(=O)=O)c(-c3ccc(OC)c(-c4nc5c(C#N)cccc5o4)c3)cc12 [Example 403, 5-(3-(4-cyanobenzo[d]oxazol-2-yl)-4-methoxyphenyl)-2-(4-fluorophenyl)-N-methyl-6-(N-methylmethylsulfonamido)benzofuran-3-carboxamide] | 3.8 |
| CNC(=O)c1c(-c2ccc(F)cc2)oc2cc(N(C)S(C)(=O)=O)c(-c3cccc(-c4nc5ccc(C)cc5s4)c3)cc12 [Example 143, 2-(4-fluorophenyl)-N-methyl-5-[3-(6-methyl-1,3-benzothiazol-2-yl)phenyl]-6-[methyl(methylsulfonyl)amino]-1-benzofuran-3-carboxamide] | 8 |
| CNC(=O)c1c(-c2ccc(F)cc2)oc2cc(N(C)S(C)(=O)=O)c(-c3cc(C#N)cc(-c4nc5c(C)ccnc5[nH]4)c3)cc12 [Example 325] | 3.2 |
| CONC(=O)c1c(-c2ccc(F)cc2)oc2cc(N(CCCc3ccccc3)S(C)(=O)=O)c(-c3ccccc3)cc12 [Example 10, 2-(4-fluorophenyl)-N-methoxy-6-[(methylsulfonyl) (3-phenylpropyl)amino]-5-phenyl-1-benzofuran-3-carboxamide] | 221 |
| CNC(=O)c1c(-c2ccc(F)cc2)oc2cc(N(C)S(C)(=O)=O)c(-c3ccc(F)c(-c4nc5ncccc5o4)c3)cc12 [Example 200] | 1.6 |
| CNC(=O)c1c(-c2ccc(F)cc2)oc2cc(N(C)S(C)(=O)=O)c(-c3ccc(OC)c(-c4nc5cc(F)cnc5o4)c3)cc12 [Example 227] | 2.2 |
| CNC(=O)c1c(-c2ccc(F)cc2)oc2cc(N(C)S(C)(=O)=O)c(-c3cccc(-c4nc5c(C)cccc5[nH]4)c3)cc12 [Example 303] | 1.8 |
| CONC(=O)c1c(-c2ccc(F)cc2)oc2cc(N(C)S(C)(=O)=O)c(-c3cccc(F)c3)cc12 [Example 95, 5-(3-fluorophenyl)-2-(4-fluorophenyl)-N-methoxy-6-[methyl (methylsulfonyl)amino]-1-benzofuran-3-carboxamide] | 130 |
